Reference: article PMC9719519, “Non-classical ferroptosis inhibition by a small molecule targeting PHB2” (Nature Communications, 2022)

Legend:
Assay in all cases: biochemical
Set-up in all cases: Eurofins recombinant human kinase profiling, remaining kinase activity as % of control, 10 uM ATP
Conditions in all cases: ATP 10 uM; read-out: %Ctrl@10 μM
ACK1(h) = target: T1, ACK1(h) (Homo sapiens, UniProt Q07912)
T1 construct: gene TNK2
Method in brief: (§1)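 Recombinant human kinases, 401 in total, screened using an outsourced kinase profiling assay.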

Abl (H396P) (h) = target: T2, Abl (H396P) (h) (Homo sapiens, UniProt P00519, H396P)
T2 construct: gene ABL1
Method in brief: as §1

BrSK1(h) = BrSK1(h) (Homo sapiens, UniProt Q8TDC3)
Chain of BrSK1(h) (Q8TDC3 whole entry): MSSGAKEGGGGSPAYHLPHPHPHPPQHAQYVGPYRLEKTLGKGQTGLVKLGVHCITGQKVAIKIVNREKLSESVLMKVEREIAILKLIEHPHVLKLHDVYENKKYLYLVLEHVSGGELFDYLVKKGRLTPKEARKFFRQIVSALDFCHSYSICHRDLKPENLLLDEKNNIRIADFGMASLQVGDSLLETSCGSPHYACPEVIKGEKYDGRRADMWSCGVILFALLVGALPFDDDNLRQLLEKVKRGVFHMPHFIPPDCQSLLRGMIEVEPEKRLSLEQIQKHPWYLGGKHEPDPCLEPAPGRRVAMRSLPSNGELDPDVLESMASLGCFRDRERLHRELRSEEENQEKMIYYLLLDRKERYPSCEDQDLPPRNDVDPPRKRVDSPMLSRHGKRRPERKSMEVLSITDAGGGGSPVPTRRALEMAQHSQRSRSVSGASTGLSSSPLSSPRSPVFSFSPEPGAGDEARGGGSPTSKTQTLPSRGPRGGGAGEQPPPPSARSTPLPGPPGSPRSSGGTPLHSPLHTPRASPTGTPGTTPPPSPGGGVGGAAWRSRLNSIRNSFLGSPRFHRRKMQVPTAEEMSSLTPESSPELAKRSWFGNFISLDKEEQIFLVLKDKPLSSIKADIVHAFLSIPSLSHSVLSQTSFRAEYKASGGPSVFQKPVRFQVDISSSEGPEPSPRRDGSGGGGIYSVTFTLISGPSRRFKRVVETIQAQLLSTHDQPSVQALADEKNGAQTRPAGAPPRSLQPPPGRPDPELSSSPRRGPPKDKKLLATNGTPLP
Method in brief: as §1

CDK18/cyclinY(h) = CDK18/cyclinY(h) (Homo sapiens, UniProt Q07002)
Chain of CDK18/cyclinY(h) (Q07002 whole entry): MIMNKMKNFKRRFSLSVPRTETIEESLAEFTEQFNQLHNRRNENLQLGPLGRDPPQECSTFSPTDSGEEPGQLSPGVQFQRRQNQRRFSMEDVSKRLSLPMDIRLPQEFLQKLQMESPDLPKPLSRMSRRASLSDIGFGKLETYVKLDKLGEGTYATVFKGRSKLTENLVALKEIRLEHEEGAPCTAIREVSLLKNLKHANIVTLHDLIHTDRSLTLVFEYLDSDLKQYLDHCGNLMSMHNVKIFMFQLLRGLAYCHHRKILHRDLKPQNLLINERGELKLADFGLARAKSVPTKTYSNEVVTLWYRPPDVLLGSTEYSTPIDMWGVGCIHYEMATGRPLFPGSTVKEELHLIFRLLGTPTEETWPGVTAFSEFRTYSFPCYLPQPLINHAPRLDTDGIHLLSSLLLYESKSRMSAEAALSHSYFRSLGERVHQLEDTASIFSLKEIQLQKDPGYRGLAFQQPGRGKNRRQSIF
Chain of CDK18/cyclinY(h) (Q8ND76 whole entry partner): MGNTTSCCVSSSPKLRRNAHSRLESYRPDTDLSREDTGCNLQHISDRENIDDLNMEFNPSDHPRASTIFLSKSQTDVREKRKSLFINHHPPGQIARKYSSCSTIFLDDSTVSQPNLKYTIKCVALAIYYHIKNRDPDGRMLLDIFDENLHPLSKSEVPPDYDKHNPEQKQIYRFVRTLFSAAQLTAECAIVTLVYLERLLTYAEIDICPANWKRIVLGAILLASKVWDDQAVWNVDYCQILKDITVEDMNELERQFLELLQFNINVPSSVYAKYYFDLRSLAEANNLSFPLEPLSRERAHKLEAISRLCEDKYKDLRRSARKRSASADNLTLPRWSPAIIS
Method in brief: as §1

CDKL2(h) = CDKL2(h) (Homo sapiens, UniProt Q92772)
Method in brief: as §1

CHK2(R145W)(h) = target: T3, CHK2(R145W)(h) (Homo sapiens, UniProt O96017, R145W)
T3 construct: gene CHEK2
Method in brief: as §1

CK2α2(h) = target: T4, CK2α2(h) (Homo sapiens, UniProt P19784)
T4 construct: gene CSNK2A2
Method in brief: as §1

ChaK1(h) = target: T5, ChaK1(h) (Homo sapiens, UniProt Q96QT4)
T5 construct: gene TRPM7
Method in brief: as §1

GRK1(h) = GRK1(h) (Homo sapiens, UniProt Q15835)
Method in brief: as §1

HPK1(h) = target: T6, HPK1(h) (Homo sapiens, UniProt Q92918)
T6 construct: gene MAP4K1
Method in brief: as §1

JAK2(h) = JAK2(h) (Homo sapiens, UniProt O60674)
Method in brief: as §1

NLK(h) = NLK(h) (Homo sapiens, UniProt Q9UBE8)
Method in brief: as §1

PKCι(h) = target: T7, PKCι(h) (Homo sapiens, UniProt P41743)
T7 construct: gene PRKCI
Method in brief: as §1

PKD3(h) = target: T8, PKD3(h) (Homo sapiens, UniProt O94806)
T8 construct: gene PRKD3
Method in brief: as §1

Pim-3(h) = target: T9, Pim-3(h) (Homo sapiens, UniProt Q86V86)
T9 construct: gene PIM3
Method in brief: as §1

Plk3(h) = Plk3(h) (Homo sapiens, UniProt Q9H4B4)
Method in brief: as §1

Rse(h) = target: T10, Rse(h) (Homo sapiens, UniProt Q06418)
T10 construct: gene TYRO3
T10 sequence (Q06418 whole entry): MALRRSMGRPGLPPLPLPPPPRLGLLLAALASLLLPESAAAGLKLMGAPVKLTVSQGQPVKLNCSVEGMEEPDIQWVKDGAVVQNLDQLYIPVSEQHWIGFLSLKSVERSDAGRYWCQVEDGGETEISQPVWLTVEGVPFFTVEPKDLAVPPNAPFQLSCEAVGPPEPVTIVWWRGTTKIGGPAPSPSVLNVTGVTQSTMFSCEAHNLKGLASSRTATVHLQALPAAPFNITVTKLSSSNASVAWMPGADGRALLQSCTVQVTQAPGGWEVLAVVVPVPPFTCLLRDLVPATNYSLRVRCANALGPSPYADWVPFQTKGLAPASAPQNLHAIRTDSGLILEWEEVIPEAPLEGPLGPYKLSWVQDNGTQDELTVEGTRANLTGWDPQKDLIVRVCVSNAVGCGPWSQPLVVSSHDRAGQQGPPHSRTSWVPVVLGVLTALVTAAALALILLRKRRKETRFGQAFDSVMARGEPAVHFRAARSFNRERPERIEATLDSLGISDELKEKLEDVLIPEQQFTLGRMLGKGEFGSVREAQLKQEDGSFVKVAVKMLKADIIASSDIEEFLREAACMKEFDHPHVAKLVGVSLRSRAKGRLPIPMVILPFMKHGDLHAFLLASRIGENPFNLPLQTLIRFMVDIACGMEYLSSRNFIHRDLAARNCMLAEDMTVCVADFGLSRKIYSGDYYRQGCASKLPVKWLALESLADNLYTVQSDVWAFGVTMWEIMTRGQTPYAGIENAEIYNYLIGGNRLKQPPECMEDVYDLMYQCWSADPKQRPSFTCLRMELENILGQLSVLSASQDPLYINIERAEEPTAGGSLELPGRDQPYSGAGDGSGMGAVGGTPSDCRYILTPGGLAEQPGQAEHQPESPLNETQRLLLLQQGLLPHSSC
Method in brief: as §1

STK25(h) = STK25(h) (Homo sapiens, UniProt O00506)
Method in brief: as §1

STK32A(h) = STK32A(h) (Homo sapiens, UniProt Q8WU08)
Method in brief: as §1

WNK3(h) = WNK3(h) (Homo sapiens, UniProt Q9BYP7)
Chain of WNK3(h) (Q9BYP7 whole entry): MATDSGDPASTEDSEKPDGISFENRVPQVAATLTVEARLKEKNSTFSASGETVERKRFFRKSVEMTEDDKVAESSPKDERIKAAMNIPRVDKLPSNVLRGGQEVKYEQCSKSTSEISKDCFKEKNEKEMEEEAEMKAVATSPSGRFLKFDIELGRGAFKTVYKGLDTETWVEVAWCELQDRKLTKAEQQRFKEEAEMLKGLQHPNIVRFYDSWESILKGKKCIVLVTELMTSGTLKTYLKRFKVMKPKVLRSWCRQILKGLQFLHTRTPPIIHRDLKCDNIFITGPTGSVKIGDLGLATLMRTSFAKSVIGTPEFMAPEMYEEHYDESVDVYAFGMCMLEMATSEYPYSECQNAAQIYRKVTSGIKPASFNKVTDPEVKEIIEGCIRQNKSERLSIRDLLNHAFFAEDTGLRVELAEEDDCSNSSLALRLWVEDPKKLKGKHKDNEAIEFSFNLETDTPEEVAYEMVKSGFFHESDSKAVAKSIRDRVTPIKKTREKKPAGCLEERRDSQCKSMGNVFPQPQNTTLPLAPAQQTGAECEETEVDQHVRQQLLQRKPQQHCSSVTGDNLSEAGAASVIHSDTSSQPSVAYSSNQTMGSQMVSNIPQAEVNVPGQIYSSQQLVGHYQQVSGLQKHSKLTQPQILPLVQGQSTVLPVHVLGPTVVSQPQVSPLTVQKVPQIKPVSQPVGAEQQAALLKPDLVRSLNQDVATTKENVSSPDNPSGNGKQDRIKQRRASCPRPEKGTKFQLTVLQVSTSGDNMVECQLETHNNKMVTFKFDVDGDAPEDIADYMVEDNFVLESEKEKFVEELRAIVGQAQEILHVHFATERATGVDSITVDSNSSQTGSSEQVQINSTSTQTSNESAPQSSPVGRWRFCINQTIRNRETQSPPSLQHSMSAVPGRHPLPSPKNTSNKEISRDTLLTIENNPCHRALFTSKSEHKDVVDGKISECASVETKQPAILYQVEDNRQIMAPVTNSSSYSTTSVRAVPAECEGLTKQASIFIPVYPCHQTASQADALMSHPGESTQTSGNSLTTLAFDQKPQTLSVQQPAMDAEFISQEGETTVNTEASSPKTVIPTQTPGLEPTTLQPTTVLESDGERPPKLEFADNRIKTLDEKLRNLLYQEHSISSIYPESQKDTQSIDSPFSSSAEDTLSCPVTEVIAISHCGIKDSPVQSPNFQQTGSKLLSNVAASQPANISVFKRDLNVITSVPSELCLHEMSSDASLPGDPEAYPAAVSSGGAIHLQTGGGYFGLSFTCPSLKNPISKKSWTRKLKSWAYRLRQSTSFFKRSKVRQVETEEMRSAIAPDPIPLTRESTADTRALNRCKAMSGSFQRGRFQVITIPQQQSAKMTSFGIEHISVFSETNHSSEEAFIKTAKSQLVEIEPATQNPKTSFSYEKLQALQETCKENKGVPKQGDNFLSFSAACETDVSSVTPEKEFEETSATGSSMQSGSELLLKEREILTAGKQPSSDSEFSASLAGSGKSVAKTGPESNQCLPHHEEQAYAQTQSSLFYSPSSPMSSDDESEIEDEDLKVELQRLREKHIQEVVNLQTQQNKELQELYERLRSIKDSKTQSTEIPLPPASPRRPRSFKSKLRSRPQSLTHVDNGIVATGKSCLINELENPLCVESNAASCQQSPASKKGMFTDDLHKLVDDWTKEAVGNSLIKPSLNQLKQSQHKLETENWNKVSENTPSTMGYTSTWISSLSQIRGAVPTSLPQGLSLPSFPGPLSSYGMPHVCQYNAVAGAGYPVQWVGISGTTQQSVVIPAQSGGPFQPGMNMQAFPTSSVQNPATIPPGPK
Method in brief: as §1

Yes(h) = target: T11, Yes(h) (Homo sapiens, UniProt P07947)
T11 construct: gene YES1
Method in brief: as §1

c-RAF(h) = target: T12, c-RAF(h) (Homo sapiens, UniProt P04049)
T12 construct: gene RAF1
T12 sequence (P04049 whole entry): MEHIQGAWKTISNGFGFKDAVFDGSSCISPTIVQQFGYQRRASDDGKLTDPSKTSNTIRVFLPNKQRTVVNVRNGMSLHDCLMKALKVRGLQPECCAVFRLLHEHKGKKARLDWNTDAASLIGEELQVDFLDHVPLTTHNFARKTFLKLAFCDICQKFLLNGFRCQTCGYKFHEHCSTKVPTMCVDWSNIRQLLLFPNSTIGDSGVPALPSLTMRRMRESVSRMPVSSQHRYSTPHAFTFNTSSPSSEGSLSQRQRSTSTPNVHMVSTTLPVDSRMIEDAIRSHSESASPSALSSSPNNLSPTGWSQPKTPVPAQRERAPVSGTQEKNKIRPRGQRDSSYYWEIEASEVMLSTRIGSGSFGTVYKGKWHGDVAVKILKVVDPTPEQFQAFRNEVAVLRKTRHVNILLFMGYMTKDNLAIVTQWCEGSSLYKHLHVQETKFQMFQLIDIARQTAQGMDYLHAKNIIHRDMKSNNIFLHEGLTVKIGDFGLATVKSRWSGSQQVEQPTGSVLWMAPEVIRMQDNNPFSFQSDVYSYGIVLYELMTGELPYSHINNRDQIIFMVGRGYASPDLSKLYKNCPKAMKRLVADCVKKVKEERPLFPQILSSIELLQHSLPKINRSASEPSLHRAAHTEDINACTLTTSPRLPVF
Method in brief: as §1

cSRC(h) = target: T13, cSRC(h) (Homo sapiens, UniProt P12931)
T13 construct: gene SRC
Method in brief: as §1

**Q.** What does the source list for C1=C(c2nc(-c3cnn(C4CCNCC4)c3)cn3cc(-c4ccccc4)nc23)CCOC1 [YL-939]?
**A.** remaining activity at 10 µM (ACK1(h)): 85%; remaining activity at 10 µM (Abl (H396P) (h)): 91%; remaining activity at 10 µM (BrSK1(h)): 91%; remaining activity at 10 µM (CDK18/cyclinY(h)): 97%; remaining activity at 10 µM (CDKL2(h)): 74%; remaining activity at 10 µM (CHK2(R145W)(h)): 98%; remaining activity at 10 µM (CK2α2(h)): 98%; remaining activity at 10 µM (ChaK1(h)): 92%; remaining activity at 10 µM (GRK1(h)): 109%; remaining activity at 10 µM (HPK1(h)): 88%; remaining activity at 10 µM (JAK2(h)): 90%; remaining activity at 10 µM (NLK(h)): 86%; remaining activity at 10 µM (PKCι(h)): 85%; remaining activity at 10 µM (PKD3(h)): 87%; remaining activity at 10 µM (Pim-3(h)): 103%; remaining activity at 10 µM (Plk3(h)): 103%; remaining activity at 10 µM (Rse(h)): 98%; remaining activity at 10 µM (STK25(h)): 82%; remaining activity at 10 µM (STK32A(h)): 111%; remaining activity at 10 µM (WNK3(h)): 87%; remaining activity at 10 µM (Yes(h)): 90%; remaining activity at 10 µM (c-RAF(h)): 76%; remaining activity at 10 µM (cSRC(h)): 78%
